From patent US20260062426A1, “CYCLIN DEPENDENT KINASE DEGRADERS AND METHODS OF USE THEREOF” (Differentiated Therapeutics Inc, priority 2023, published 2026)

Columns and labels:
Format in all cases: cell-based
CDK9 = target: T1, CDK9 (Homo sapiens, UniProt P50750); assay: CDK9 HIBIT PQ (protein quantification), degradation; settings: Max = Maximum
T1 construct: host or cells: HEK293
Procedure, shortened: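 HEK293 cells carrying HiBiT-tagged CDK9 were grown in DMEM with 10% FBS and seeded in 384-well plates at 1.6×10^5 cells/well in 50 uL, then incubated overnight at 37° C and 5% CO2. After compound treatment, CDK9 protein was measured with a HiBiT assay. High control was 0.1% DMSO-treated cells and low control was culture medium only. Maximal degradation, Dmax and DC50 were derived from these readings.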

CCNE1 = target: T2, CCNE1 (Homo sapiens, UniProt P24864+P24941); assay: CCNE1 HIBIT PQ (protein quantification), degradation
T2 construct: host or cells: HEK293
Procedure, shortened: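 Compound was applied for 6 hours to HEK293 cells expressing HiBiT-tagged CCNE1, which had been seeded overnight in 384-well plates at 1.6×10⁵ cells/well. CCNE1 protein was then read by HiBiT assay against a high control of 0.1% DMSO-treated cells and a low control of medium only. These readings gave DC50 and maximal degradation.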

CDK2 = target: T3, CDK2 (Homo sapiens, UniProt P24941); assay: CDK2 HIBIT PQ (protein quantification), degradation
T3 construct: host or cells: HEK293
Procedure, shortened: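 HEK293 cells bearing HiBiT-tagged CDK2 were cultured in DMEM containing 10% FBS, plated in 384-well plates at 1.6×10^5 cells/well in 50 uL, and kept overnight at 37° C and 5% CO2. Following 6 hours of compound exposure, each well received 20 μL of HiBiT reagent (Nano-Glo HiBiT lytic buffer, lytic substrate, LgBiT protein), and plates were shaken for 20 minutes at room temperature and then read on an EnVision, with 0.1% DMSO as the high control and medium only as the low control. DC50 and maximal degradation were calculated from these readings.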

T1 sequence (P50750 whole entry): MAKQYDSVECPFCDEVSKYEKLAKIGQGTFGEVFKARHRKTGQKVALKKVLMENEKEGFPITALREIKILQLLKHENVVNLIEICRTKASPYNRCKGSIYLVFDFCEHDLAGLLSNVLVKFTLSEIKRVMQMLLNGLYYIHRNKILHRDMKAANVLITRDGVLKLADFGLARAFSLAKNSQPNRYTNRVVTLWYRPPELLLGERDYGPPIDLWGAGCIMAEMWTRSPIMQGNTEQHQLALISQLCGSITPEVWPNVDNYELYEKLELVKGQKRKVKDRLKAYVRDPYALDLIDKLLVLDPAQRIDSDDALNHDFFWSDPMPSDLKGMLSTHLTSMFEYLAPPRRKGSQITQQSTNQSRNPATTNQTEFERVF

- Dmax (CDK9): 1%
- CCNE1 HIBIT PQ Max (%) (CCNE1; Max = Maximum): 57%
- DC50 (CCNE1; PQ = Protein Quantification): 62.8 nM
- CDK2 HIBIT PQ Max (%) (CDK2; Max = Maximum): 86%
- DC50 (CDK2; PQ = Protein Quantification): 24.2 nM
Compound: CC(C)Oc1c(-c2cn[nH]c2)ncn2nc(Nc3ccc(S(=O)(=O)c4cccc(C[C@H]5C[C@@H](c6ccc7c(c6)CN([C@H]6CCC(=O)NC6=O)C7=O)C5)c4)cc3F)nc12 (stereo in doubt) [Compound 81, (S)-3-(5-((1r,3R)-3-(3-((3-fluoro-4-((8-isopropoxy-7-(1H-pyrazol-4-yl)-[1,2,4]triazolo[1,5-c]pyrimidin-2-yl)amino)phenyl)sulfonyl)benzyl)cyclobutyl)-1-oxoisoindolin-2-yl)piperidine-2,6-dione]
